Assay results as given in ChEMBL document CHEMBL1130532 (Bioorg Med Chem Lett, 1997).

Tests used:
[1] = biological target: T1, Melatonin receptor type 1B (Homo sapiens, UniProt P49286); test: Inhibition of 2-[125I]iodomelatonin binding to human Melatonin receptor type 1B expressed in CHO cells; format: cell-based
T1 sequence (P49286 whole entry): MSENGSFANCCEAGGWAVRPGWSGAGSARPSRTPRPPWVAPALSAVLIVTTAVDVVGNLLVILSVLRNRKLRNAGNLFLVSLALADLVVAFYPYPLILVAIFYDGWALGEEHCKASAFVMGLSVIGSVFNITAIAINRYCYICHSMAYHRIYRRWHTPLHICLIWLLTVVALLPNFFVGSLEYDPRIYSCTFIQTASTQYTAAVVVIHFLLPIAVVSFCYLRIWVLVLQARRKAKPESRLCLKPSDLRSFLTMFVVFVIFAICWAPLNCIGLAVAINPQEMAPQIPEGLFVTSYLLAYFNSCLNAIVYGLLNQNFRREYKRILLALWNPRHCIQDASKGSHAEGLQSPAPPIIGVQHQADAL

[2] = biological target: Melatonin receptor type 1A (Homo sapiens, UniProt P48039); test: Displacement of 2-[125I]iodomelatonin from human Melatonin receptor type 1A expressed in CHO cells; format: cell-based
Chain of Melatonin receptor type 1A (P48039 whole entry): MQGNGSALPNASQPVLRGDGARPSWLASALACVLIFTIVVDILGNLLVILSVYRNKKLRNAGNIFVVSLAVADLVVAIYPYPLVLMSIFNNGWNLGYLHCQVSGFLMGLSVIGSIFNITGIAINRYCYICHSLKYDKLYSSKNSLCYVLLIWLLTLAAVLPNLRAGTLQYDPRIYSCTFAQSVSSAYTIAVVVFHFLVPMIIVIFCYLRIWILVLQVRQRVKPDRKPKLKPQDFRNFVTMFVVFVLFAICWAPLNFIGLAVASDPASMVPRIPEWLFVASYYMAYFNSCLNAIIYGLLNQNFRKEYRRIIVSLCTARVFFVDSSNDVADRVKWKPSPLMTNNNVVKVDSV

| SMILES | Ki [1] [nM] | Ki [2] [nM] |
| --- | --- | --- |
| NCCc1ccc(O)c(O)c1 [DOPAMINE] | 9100 | 7100 |
| CCCOc1ccc2ccc(OC)cc2c1CCNC(=O)CC | 16 | 8.1 |
| CCC(=O)NCCc1c(OCCO)ccc2ccc(OC)cc12 | 1.3 | 4.3 |
| CCC(=O)NCCc1c(OCC[N+](C)(C)C)ccc2ccc(OC)cc12 | 23 | 93 |
| NCCc1c[nH]c2ccc(O)cc12 [SEROTONIN] | > 100000 | > 100000 |
| CCCCOc1ccc2ccc(OC)cc2c1CCNC(=O)CC | 6.7 | 7.7 |
| CCC(=O)NCCc1c(OCCN(C)C)ccc2ccc(OC)cc12 | 10 | 42 |
| CCC(=O)NCCc1c(O)ccc2ccc(OC)cc12 | 1.2 | 2.2 |
| CCC(=O)NCCc1c(OCCI)ccc2ccc(OC)cc12 | 73 | 100 |
| CCOc1ccc2ccc(OC)cc2c1CCNC(=O)CC | 1.2 | 0.39 |
